Series [1] relates to Canis familiaris. Put plainly: Diuretic activity in dog assessed as sodium level in urine collected for 2 hrs at 1.5 mg/kg, iv over a period of 5 mins (reference value: 29 microEq). It counts as functional, Canis lupus familiaris.
Series [2] concerns Canis familiaris. Put plainly: Diuretic activity in dog assessed as urine volume collected for 2 hrs at 1.5 mg/kg, iv over a period of 5 mins (reference value: 1 mL). It counts as functional, Canis lupus familiaris.
Series [3] relates to Pan troglodytes. Put plainly: Natriuretic activity in chimpanzee assessed as change sodium level in urine measured per min at 5 mg/kg, po. The series is classed as functional.
In series [4] the test system is Canis familiaris. The series can be described thus: Diuretic activity in dog assessed as chloride level in urine collected for 2 hrs at 1.5 mg/kg, iv over a period of 5 mins (reference value: 1 microEq). It counts as functional, Canis lupus familiaris.
Series [5] concerns Pan troglodytes. Put plainly: Ratio of change in urate excretion to change in inulin excretion in chimpanzee in urine at 5 mg/kg, po. It counts as functional.
Series [6] concerns Canis familiaris. Put plainly: Diuretic activity in dog assessed as potassium level in urine collected for 2 hrs at 1.5 mg/kg, iv over a period of 5 mins (reference value: 18 microEq). It counts as functional, Canis lupus familiaris.
For another series, the system named is Rattus norvegicus. The series can be described thus: Natriuretic activity in po dosed Charles River rat assessed as sodium level in urine per cage collected 0.5 hrs interval relative to 2-(3,6,7-trimethyl-1-oxo-2,3-dihydro-1H-inden-5-yloxy)acetic acid. It counts as functional.
Series [7] has as its system Canis familiaris. Put plainly: Diuretic activity in dog assessed as chloride level in urine collected for 2 hrs at 5 mg/kg, iv over a period of 5 mins (reference value: 1 to 10 microEq). It counts as functional, Canis lupus familiaris.
Series [8] relates to Canis familiaris. Put plainly: Diuretic activity in dog assessed as potassium level in urine collected for 2 hrs at 5 mg/kg, iv over a period of 5 mins (reference value: 5 to 30 microEq). The series is classed as functional, Canis lupus familiaris.
Series [9] deals with Canis familiaris. The series can be described thus: Diuretic activity in dog assessed as sodium level in urine collected for 2 hrs at 5 mg/kg, iv over a period of 5 mins (reference value: 5 to 30 microEq). The series is classed as functional, Canis lupus familiaris.
Series [10] can be described thus: Acute toxicity in iv dosed mouse. It counts as organism-based. Particulars: in vivo.
Series [11] has as its system Canis familiaris. The series can be described thus: Diuretic activity in dog assessed as urine volume collected for 2 hrs at 5 mg/kg, iv over a period of 5 mins (reference value: 1 to 2 mL). The series is classed as functional, Canis lupus familiaris.

Molecules are shown by their SMILES.

In the case of `NS(=O)(=O)c1cc(C(=O)O)c(NCc2ccco2)cc1Cl` [FUROSEMIDE], the Activity in the series on Canis familiaris [1] stood at 960 uEq; in the series on Canis familiaris [2], 3 mL; with Pan troglodytes [3] it was 1035 uEq; in the series with Canis familiaris [4], 1081 uEq; with Canis familiaris [6], 141 uEq. Also, the Ratio in the series with Pan troglodytes [5] is on record as -0.02.
What is called LD50 is the dose expected to kill half of the subjects tested. In the case of `O=C(O)COc1cc2c(c(Cl)c1Cl)C(=O)C(C1CCCC1)C2` (stereo in doubt; 4p), the Activity with Pan troglodytes [3] (5 mg/kg) came to 223 uEq; with Canis familiaris [7], 5 uEq; in the series with Canis familiaris [8], 37 uEq; in the series with Canis familiaris [9], 20 uEq; with Canis familiaris [11], 2 mL. Further, the figures for the Ratio in the series with Rattus norvegicus and in the series on Pan troglodytes [5] (5 mg/kg) were 1.8 and 0.18, respectively. Further, the LD50 in series [10] came out at 222 mg/kg.

For the origin of these results see ChEMBL document CHEMBL3272024, “(Acylaryloxy)acetic acid diuretics. 1. (2-Alkyl- and 2,2-dialkyl-1-oxo-5-indanyloxy)acetic acids” (J Med Chem, 1977).
